# Assays:
# Aorta [1] = assay: Inhibition of KCl-induced contraction in Wistar rat aorta assessed as contraction at 60 uM preincubated 15 mins before addition of KCl relative to control; type: functional; design: scale not given: the % may be the effect or the level left
# Aorta [2] = assay: Inhibition of norepinephrine-induced contraction in Wistar rat aorta assessed as contraction at 60 uM preincubated 15 mins before addition of norepinephrine relative to control; type: functional; design: scale not given: the % may be the effect or the level left
# Platelet [3] = assay: Inhibition of arachidonic acid-induced rabbit platelet aggregation assessed as aggregation at 300 uM preincubated 3 mins before arachidonic acid challenge by turbidimetric method; type: functional, Oryctolagus cuniculus; design: scale not given: the % may be the effect or the level left
# Aorta [4] = assay: Inhibition of KCl-induced contraction in Wistar rat aorta assessed as contraction at 120 uM preincubated 15 mins before addition of KCl relative to control; type: functional; design: scale not given: the % may be the effect or the level left
# Aorta [5] = assay: Inhibition of norepinephrine-induced contraction in Wistar rat aorta assessed as contraction at 120 uM preincubated 15 mins before addition of norepinephrine relative to control; type: functional; design: scale not given: the % may be the effect or the level left
# Platelet [6] = assay: Inhibition of collagen-induced rabbit platelet aggregation assessed as aggregation at 300 uM preincubated 3 mins before collagen challenge by turbidimetric method; type: functional, Oryctolagus cuniculus; design: scale not given: the % may be the effect or the level left
# Platelet [7] = assay: Inhibition of arachidonic acid-induced rabbit platelet aggregation assessed as aggregation at 50 uM by turbidimetric method; type: functional, Oryctolagus cuniculus; design: scale not given: the % may be the effect or the level left
# Platelet [8] = assay: Inhibition of collagen-induced rabbit platelet aggregation assessed as aggregation at 50 uM by turbidimetric method; type: functional, Oryctolagus cuniculus; design: scale not given: the % may be the effect or the level left
# [9] = Induction of rabbit platelet aggregation at 300 uM by turbidimetric method; type: cell-based, Oryctolagus cuniculus
# Aorta [10] = assay: Inhibition of norepinephrine-induced contraction in Wistar rat aorta assessed as contraction at 9 uM preincubated 15 mins before addition of norepinephrine relative to control; type: functional; design: scale not given: the % may be the effect or the level left
# Aorta [11] = assay: Inhibition of KCl-induced contraction in Wistar rat aorta assessed as contraction at 9 uM preincubated 15 mins before addition of KCl relative to control; type: functional; design: scale not given: the % may be the effect or the level left
# Aorta [12] = assay: Inhibition of KCl-induced contraction in Wistar rat aorta assessed as contraction at 1 uM preincubated 15 mins before addition of KCl relative to control; type: functional; design: scale not given: the % may be the effect or the level left
# Aorta [13] = assay: Inhibition of norepinephrine-induced contraction in Wistar rat aorta assessed as contraction at 1 uM preincubated 15 mins before addition of norepinephrine relative to control; type: functional; design: scale not given: the % may be the effect or the level left
Compound,Activity (Platelet [3]) [%],Activity (Aorta [4]) [%],Activity (Aorta [5]) [%],Activity (Platelet [6]) [%],Activity [9],also measured
COc1ccc2c(c1OC)-c1c3c(cc4c1[C@H](C2)N(C)CC4)OCO3,73,55.2,22.9,60.8,,Activity (Aorta [1]): 88.5%; Activity (Aorta [2]): 68.1%
CC(=O)Oc1ccccc1C(=O)O [ASPIRIN],,,,,,Activity (Platelet [7]): 0%; Activity (Platelet [8]): 85.4%
COc1cc2cc3c4c(cc5c(c4c2cc1OC)OCO5)CCN3C [DEHYDRODICENTRINE],,108,95.5,,Not Active,
COc1cc2c(cc1OC)-c1c3c(cc4c1[C@H](C2)N(C)CC4)OCO3 [DICENTRINE],0,,,3.1,,Activity (Aorta [10]): 22.5%; Activity (Aorta [11]): 77.5%
COc1cc2c(cc1OC)-c1c3c(cc4ccnc(c14)C2=O)OCO3 [DICENTRINONE],,102.1,112.4,,Not Active,
COC(=O)C1=C(C)NC(C)=C(C(=O)OC)C1c1ccccc1[N+](=O)[O-] [NIFEDIPINE],,,,,,Activity (Aorta [12]): 0%; Activity (Aorta [13]): 96.5%
